Data as given in patent US20250042889A1, “3CLPRO PROTEASE INHIBITOR” (SHANGHAI QILU PHARMACEUTICAL RESEARCH AND DEVELOPMENT …, priority 2021, published 2025).
Where two headings read alike, the source gives them in different places.

Assays:
[1] = molecular target: SARS-COV-2 3CLpro/Mpro protease (Severe acute respiratory syndrome coronavirus 2 (2019-nCoV) (SARS-CoV-2), UniProt P0DTD1); assay: Inhibitory effect on SARS-COV-2 3CLpro/Mpro protease by fluorescence resonance energy transfer; assay type: biochemical; conditions: activity intervals A-D
[2] = male, CD1, mouse, in vivo, po, 10 mg/kg
in vivo = conditions: male, CD1, mouse
[3] = Pharmacokinetics in vivo experiment in CD1 mice; conditions: oral administration, 10 mg/kg
[4] = Pharmacokinetics in vivo experiment in cynomolgus macaques; conditions: male, cynomolgus monkey, 10 mg/kg; for AUC / Cmax / Tmax: in vivo, po; for half-life: plasma, cynomolgus macaque, oral administration
Experimental: • Basic information of animals • Species: cynomolgus macaque • Grade: conventional grade • Quantity: 18 cynomolgus macaques (male) were used in the drug administration experiment. • Weight: about 2.5 to 4.5 kg • Age: 3 to 5 years old • Source: Huazhen Animal Farm, Conghua City (General Partnership)
There are 9 male cynomolgus macaques, 3 cynomolgus macaques/group, 3 groups in total. The animals were fasted for 12 hours before administration, and the test solution was administered by gavage (10 mg/kg), and the administration volume was 2.5 mL/kg.
The blood was placed on wet ice, and centrifuged at 1700 g at 4° C. for 10 min within 1.5 h after collection. After centrifugation, the plasma was taken and added into a detection tube. Plasma samples can be stored in a refrigerator below-20° C. within 2 hours after centrifugation.
WinNonlin 8.1.0.3530 was used to calculate pharmacokinetic parameters.

[5] = read-out: IC50 (nM), Inhibition on SARS-CoV-2 3CLpro/Mpro protease

Row | SMILES | IC50 [1, 5] [nM] | F [2] [%] | AUC (in vivo; in vivo, iv, 1 mg/kg) [ng·h/mL] | Vd (in vivo; in vivo, iv, 1 mg/kg) [L/kg] | clearance (in vivo; in vivo, iv, 1 mg/kg) [mL/min/kg] | AUC (in vivo; in vivo, po, 10 mg/kg) [ng·h/mL] | Cmax (in vivo; in vivo, po, 10 mg/kg) [ng/mL] | half-life (in vivo; plasma, iv, 1 mg/kg) [min] | half-life (in vivo; plasma, po, 10 mg/kg) [min] | further results
1 | CNc1cncc(C(=O)N2C[C@H](Nc3c(C(=O)N4C[C@@H](C)O[C@@H](C)C4)cc(Br)cc3[N+](=O)[O-])C[C@@H](OC)C2)c1 [Example 422] | 50 to 100 | 62.6 | 102 | 1.32 | 9.82 | 628 | 725 | 6.36 | 19.2 | 
2 | CNc1cncc(C(=O)N2CCC[C@@H](Nc3c(C(=O)N4CCOC(F)(F)C4)cc(Br)cc3[N+](=O)[O-])C2)c1 [Example 295] | 10 to 50 | 36.3 | 136 | 1.06 | 7.4 | 494 | 697 | 7.62 | 11.6 | 
3 | CNc1cncc(C(=O)N2CCC[C@@H](Nc3c(C(=O)N4C5CCCC4COC5)cc(Br)cc3[N+](=O)[O-])C2)c1 [Example 312] |  |  | 95 | 1.38 | 10.6 | 605 | 594 |  |  | IC50 ([1]; IC50 (nM), Inhibition on SARS-CoV-2 3CLpro/Mpro protease): 10 to 50 nM; half-life (in vivo; in vivo, iv, 1 mg/kg): 7.68 min; half-life (in vivo; in vivo, po, 10 mg/kg): 46.1 min; F [3]: 65.5%
4 | CNc1cncc(C(=O)N2CCC[C@@H](Nc3c(C(=O)N4CCO[C@H](C)C4)cc(Br)cc3[N+](=O)[O-])C2)c1 [Example 35] | 10 to 50 | 60 | 112 | 1.28 | 9.12 | 668 | 1020 | 8.1 |  | 
5 | CNc1cncc(C(=O)N2CCC[C@@H](Nc3c(C(=O)N4CCCCC4)cc(Br)cc3[N+](=O)[O-])C2)c1 [Example 31, (R)-(5-bromo-2-((1-(5-(methylamino)nicotinoyl)piperidin-3-yl)amino)-3-nitrophenyl)(piperidin-1-yl)methanone] | 10 to 50 | 42.1 | 88 | 1.56 | 11.6 | 369 | 401 |  | 15 | AUC [4]: 454 ng·h/mL; Cmax [4]: 232 ng/mL; Tmax [4]: 79.8 min; half-life [4]: 29.4 min
6 | CNc1cncc(C(=O)N2C[C@H](Nc3c(C(=O)N4C[C@@H](C)O[C@@H](C)C4)cc(Br)cc3[N+](=O)[O-])[C@@H](OC)C2)c1 [Example 321] | 10 to 50 | 84.7 | 153 | 7.1 | 6.2 | 1350 | 1640 | 96 | 144 | AUC [4]: 994 ng·h/mL; Cmax [4]: 699 ng/mL; Tmax [4]: 70.2 min
7 | CNc1cncc(C(=O)N2CCC[C@@H](Nc3c(C(=O)N4C[C@@H](C)O[C@@H](C)C4)cc(Br)cc3[N+](=O)[O-])C2)c1 [Example 34, (5-Bromo-2-((R)-1-(5-(methylamino)nicotinoyl)piperidin-3-yl)amino)-3-nitrophenyl ((2R,6S)-2,6-dimethylmorpholinyl)methanone] | 10 to 50 | 63 | 107 | 1.02 | 9.4 | 702 | 1020 | 6.84 | 30 | AUC [4]: 4090 ng·h/mL; Cmax [4]: 1960 ng/mL; Tmax [4]: 79.8 min; half-life [4]: 35 min
8 | O=C(c1cc(Br)cc([N+](=O)[O-])c1N[C@@H]1CCCN(C(=O)[C@H]2CNCC(F)(F)C2)C1)N1CCCCC1 [Example 320] | 10 to 50 | 27.7 | 156 | 2.1 | 6.3 | 280 | 825 | 21.6 | 26.2 | 
9 | CNc1cncc(C(=O)N2CCC[C@@H](Nc3c(C(=O)N4CCCC(F)(F)C4)cc(Br)cc3[N+](=O)[O-])C2)c1 [Example 36, (R)-(5-bromo-2-((1-(5-(methylamino)nicotinoyl)piperidin-3-yl)amino)-3-nitrophenyl)(3,3-difluoropiperidin-1-yl)methanone] | 10 to 50 | 29.7 | 92 | 1.7 | 11.2 | 273 | 365 | 8.16 |  | 
10 | CNc1cncc(C(=O)N2CCC[C@@H](Nc3c(C(=O)N4CCC(O)(C(F)(F)F)CC4)cc(Br)cc3[N+](=O)[O-])C2)c1 [Example 240] | 10 to 50 |  |  |  |  |  |  |  |  | 
11 | [2H]C1([2H])CN(C(=O)c2cc(Br)cc([N+](=O)[O-])c2N[C@@H]2CCCN(C(=O)c3cncc(NC)c3)C2)CC([2H])([2H])O1 [Example 353] | 10 to 50 |  |  |  |  |  |  |  |  | 
12 | CNc1cncc(C(=O)N2C[C@H](Nc3c(C(=O)N4C[C@@H](C)O[C@@H](C)C4)cc(Br)cc3[N+](=O)[O-])C[C@H]2C(=O)Nc2nn(C3CC3)cc2Br)c1 [Example 420] | 50 to 100 |  |  |  |  |  |  |  |  | 
13 | COCCN1CCN(C(=O)c2cc(Br)cc([N+](=O)[O-])c2N[C@H]2CN(C(=O)c3cncc(I)c3)CC2(F)F)CC1 [Example 208] | 10 to 50 |  |  |  |  |  |  |  |  | 
14 | O=C(c1cncc(Br)c1)N1C[C@H](Nc2c(C(=O)N3CCCCC3)cc(Br)cc2[N+](=O)[O-])C(F)(F)C1 [Example 197] | 10 to 50 |  |  |  |  |  |  |  |  | 
15 | CNc1cncc(C(=O)N2C[C@H](Nc3c(C(=O)N4CC5C(C4)C5(C)C)cc(Br)cc3[N+](=O)[O-])C3(CC3)C2)c1 (stereo partly shown) [Example 83] | 10 to 50 |  |  |  |  |  |  |  |  | 
16 | C[C@@H]1CN(C(=O)c2cc(Br)cc([N+](=O)[O-])c2N[C@@H]2CCCN(C(=O)c3cc(=O)[nH]c4ccccc34)C2)C[C@H](C)N1 [Example 139] | 10 to 50 |  |  |  |  |  |  |  |  | 
17 | O=C(N[C@H]1CCCC[C@H]1Nc1c(C(=O)N2C[C@@H](O)C[C@@H](NC(=O)C(F)(F)F)C2)cc(Br)cc1C(F)(F)F)c1cncc2cc(Cl)ccc12 [Example 207] | 10 to 50 |  |  |  |  |  |  |  |  | 
